Experimental findings from US11453683B1, “KRas G12D inhibitors” (Mirati Therapeutics, Inc., priority 2019, dated 2022) are described below.

In assay [1] the target is T1, KRas G12D (Homo sapiens (Human), UniProt P01116, G12D). The assay can be described thus: KRas G12D Surface Plasmon Resonance (SPR) Binding Assay. The settings on record: Biacore T200, immobilized biotinylated KRAS protein, 1:1 binding model. The protocol:
Briefly, 1 L of 1.05× HBS-Mg buffer (262.5 mM Bioultra Hepes, pH 7.5, 157.5 mM NaCl, 105 mM MgCl2, 0.525 mM TCEP, 0.0305% Brij-35) was prepared and filter sterilized using a 0.22 μm bottle top filter. Approximately 50 mL of 1.05× HBS-Mg buffer was removed and saved for future dilutions. A 50 mL aliquot of DMSO (Sigma Aldrich DMSO Lot. #SHBK2079) was added and continued to stir for 10 minutes, creating the final 1.0× HBS-Mg buffer (250 mM Bioultra Hepes pH 7.5, 150 mM NaCl, 100 mM MgCl2, 0.5mM TCEP, 0.03% Brij-35).
Biacore T200 instrument was primed using 1.0× HBS-Mg buffer before docking a GE Streptavidin (SA) chip and then primed two additional times prior to beginning the immobilization step. All immobilized protein mixtures were created using 3-5mg/mL Biotinylated Avidin-tagged KRAS protein using the following immobilization settings: SA chip type, 1 flow cells per cycle, 720 second contact time, and 5 ul/min flow rate. Normalization of the detector was also performed during the immobilization step using the GE Biallormalize solution.
All compounds were diluted to 10 mM in 100% DMSO prior to being diluted 20× in 1.05× buffer. […] Data evaluation was performed using the Biacore T200 Evaluation software and data fit to 1:1 binding model.
On the technique in general: Surface plasmon resonance follows binding to a sensor surface in real time, without labels.
Target sequence in this assay (P01116-2 other isoform, or with tags, fused parts or gaps G12D): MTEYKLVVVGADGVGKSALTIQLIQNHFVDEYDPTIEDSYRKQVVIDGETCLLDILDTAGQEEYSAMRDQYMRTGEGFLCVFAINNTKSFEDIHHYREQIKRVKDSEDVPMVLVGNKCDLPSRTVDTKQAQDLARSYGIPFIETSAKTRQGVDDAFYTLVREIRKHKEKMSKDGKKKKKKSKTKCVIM

Assay [2] addresses T1, KRas G12D. The assay can be described thus: KRas G12D Binding Assay (TR-FRET displacement). The settings on record: TR-FRET displacement of Cy5 labelled tracer, GDP-loaded KRAS G12D, 60 minute incubation at 22° C. The protocol: After a 60 minute incubation at 22° C., the reaction was measured using a PerkinElmer EnVision multimode plate reader via TR-FRET dual wavelength detection, and the percent of control (POC) calculated using a ratiometric emission factor. […] The POC values were fit to a 4-parameter logistic curve and the IC50 value was determined as the concentration where the curve crosses 50 POC.
Background: Time-resolved FRET reads energy transfer from a long-lived donor to a nearby acceptor.
Target sequence in this assay (P01116 other isoform, or with tags, fused parts or gaps G12D): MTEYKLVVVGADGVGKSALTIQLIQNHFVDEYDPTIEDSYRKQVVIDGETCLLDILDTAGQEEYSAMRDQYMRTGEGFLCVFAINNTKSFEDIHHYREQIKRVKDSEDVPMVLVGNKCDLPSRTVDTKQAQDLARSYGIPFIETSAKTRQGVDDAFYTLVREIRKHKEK

In assay [3] the test system is KRas G12D-mediated phosphorylation of ERK. The assay can be described thus: Inhibition of KRas G12D-mediated phosphorylation of ERK in AGS cells. The assay is classed as cell-based. The settings on record: Homo sapiens; AGS cells expressing G12D, 3 hours, phospho-ERK normalized to GAPDH. In outline: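 Fixed, methanol-permeabilized; phospho-ERK (Thr202/Tyr204) by in-cell immunofluorescence normalized to GAPDH. Percent of DMSO control, IC50 by 4-parameter fit.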

pIC50, pKd: −log10 of the molar value. A value given as a limit tells only on which side of the number the result lay.

With `CN1CCC[C@H]1COc1nc(N2C[C@H]3CC[C@@H](C2)N3)c2cnc(-c3cccc4cccc(CCC#N)c34)c(F)c2n1` [Example 117, 3-(8-(4-((1R,5S)-3,8-diazabicyclo[3.2.1]octan-3-yl)-8-fluoro-2-(((S)-1-methylpyrrolidin-2-yl)methoxy)pyrido[4,3-d]pyrimidin-7-yl)naphthalen-1-yl)propanenitrile bis(2,2,2-trifluoroacetate)], the negative-log Kd (pKd) on KRas G12D [1] was 6.00. Also, the pIC50 on KRas G12D [2] was 6.14.
For the compound `CC(C)N1CCC[C@H]1COc1nc(N2C[C@H]3C[C@@H](O)[C@@H](C2)N3)c2cnc(-c3cccc4cccc(Cl)c34)c(F)c2n1` [Example 153, (1R,5R,6R)-3-(7-(8-chloronaphthalen-1-yl)-8-fluoro-2-(((S)-1-isopropylpyrrolidin-2-yl)methoxy)pyrido[4,3-d]pyrimidin-4-yl)-3,8-diazabicyclo[3.2.1]octan-6-ol], the pIC50 in assay [3] was 5.63; on KRas G12D [2] it was 7.29. The same compound gave a pKd at KRas G12D [1] of 7.15.
As for `OCC(COc1nc(N2C[C@H]3CC[C@@H](C2)N3)c2cnc(-c3cccc4cccc(Cl)c34)c(F)c2n1)c1cccnc1` (stereo partly drawn) [Example 59, 3-((4-((1R,5S)-3,8-diazabicyclo[3.2.1]octan-3-yl)-7-(8-chloronaphthalen-1-yl)-8-fluoropyrido[4,3-d]pyrimidin-2-yl)oxy)-2-(pyridin-3-yl)propan-1-ol], the pKd on KRas G12D [1] was 5.95. The pIC50 on KRas G12D [2] was 6.02.
`CC(C)c1cccc2cc(O)cc(-c3ncc4c(N5CC6CCC(C5)N6)nc(OC[C@@]56CCCN5C[C@H](F)C6)nc4c3F)c12` (racemic) [Example 364, 4-(4-((1R,5S)-3,8-diazabicyclo[3.2.1]octan-3-yl)-8-fluoro-2-((2-fluorotetrahydro-1H-pyrrolizin-7a(5H)-yl)methoxy)pyrido[4,3-d]pyrimidin-7-yl)-5-isopropylnaphthalen-2-ol (racemic, trans)]: the values for the pIC50 (in assay [3]; on KRas G12D [2]) were 6.49 and 8.64, respectively.
In the case of `OC[C@@H](O)COc1nc(N2C[C@H]3CC[C@@H](C2)N3)c2cnc(-c3cccc4cccc(Cl)c34)c(F)c2n1` [Example 56, (R)-3-((4-((1R,5S)-3,8-diazabicyclo[3.2.1]octan-3-yl)-7-(8-chloronaphthalen-1-yl)-8-fluoropyrido[4,3-d]pyrimidin-2-yl)oxy)propane-1,2-diol], the pKd on KRas G12D [1] was 5.29. In addition, the pIC50 on KRas G12D [2] was 5.23.
With `COC(=O)C12CCC(CN(c3nc(OC[C@@H]4CCCN4C)nc4c(F)c(-c5cc(O)cc6ccccc56)ncc34)C1)N2` (stereo partly drawn) [Example 158, methyl 3-(8-fluoro-7-(3-hydroxynaphthalen-1-yl)-2-(((S)-1-methylpyrrolidin-2-yl)methoxy)pyrido[4,3-d]pyrimidin-4-yl)-3,8-diazabicyclo[3.2.1]octane-1-carboxylate bis(2,2,2-trifluoroacetate)], the pIC50 is 5.37 in assay [3] and 7.13 on KRas G12D [2]. In addition, the pKd on KRas G12D [1] was 6.48.
Turning to `Oc1cc(-c2ncc3c(N4CC5CCC(C4)N5)nc(OC[C@@]45CCCN4C[C@H](F)C5)nc3c2F)c2c(F)cccc2c1` (racemic) [Example 366, 4-(4-((1R,5S)-3,8-diazabicyclo[3.2.1]octan-3-yl)-8-fluoro-2-((2-fluorotetrahydro-1H-pyrrolizin-7a(5H)-yl)methoxy)pyrido[4,3-d]pyrimidin-7-yl)-5-fluoronaphthalen-2-ol (racemic, trans)], the figures for the pIC50 (in assay [3]; at KRas G12D [2]) were 8.15 and 9.30, respectively.
The like results for `CSc1cccc2cc(O)cc(-c3ncc4c(N5CC6CCC(C5)N6)nc(OCC56CCCN5C[C@H](F)C6)nc4c3F)c12` (mixture of isomers) [Example 372, 4-(4-((1R,5S)-3,8-diazabicyclo[3.2.1]octan-3-yl)-8-fluoro-2-((2-fluorotetrahydro-1H-pyrrolizin-7a(5H)-yl)methoxy)pyrido[4,3-d]pyrimidin-7-yl)-5-(methylthio)naphthalen-2-ol (racemic, trans)] were, in that order, 7.98 and 9.15.
`FCC1CCC2(COc3nc(N4C[C@H]5CC[C@@H](C4)N5)c4cnc(-c5cccc6cccc(Cl)c56)c(F)c4n3)CCCN12` (stereo partly drawn) [Example 347, 4-((1R,5S)-3,8-diazabicyclo[3.2.1]octan-3-yl)-7-(8-chloronaphthalen-1-yl)-8-fluoro-2-((3-(fluoromethyl)tetrahydro-1H-pyrrolizin-7a(5H)-yl)methoxy)pyrido[4,3-d]pyrimidine]: the pIC50 in assay [3] was 6.34; at KRas G12D [2] it was 8.68.
On KRas G12D [1], `Oc1cc(-c2ncc3c(N4C[C@H]5CC[C@@H](C4)N5)nc(OCCc4ccccc4F)nc3c2F)c2ccccc2c1` [Example 67, 4-(4-((1R,5S)-3,8-diazabicyclo[3.2.1]octan-3-yl)-8-fluoro-2-(2-fluorophenethoxy)pyrido[4,3-d]pyrimidin-7-yl)naphthalen-2-ol] had a negative logarithm of the Kd (pKd) of 5.94. At KRas G12D [2], this compound showed a negative logarithm of the IC50 (pIC50) of 5.90.
With `[O-][N+]12CCCC1(COc1nc(N3CC4CCC(C3)N4)c3cnc(-c4cccc5cccc(Cl)c45)c(F)c3n1)CCC2` [Example 60, 7a-(((4-((1R,5S)-3,8-diazabicyclo[3.2.1]octan-3-yl)-7-(8-chloronaphthalen-1-yl)-8-fluoropyrido[4,3-d]pyrimidin-2-yl)oxy)methyl)hexahydropyrrolizine 4(1H)-oxide], the negative-log IC50 (pIC50) in assay [3] is less than 4.78; at KRas G12D [2], 5.78. The compound further had a pKd on KRas G12D [1] of less than 3.00.
In the case of `CC(C)(C)c1ccccc1-c1ncc2c(N3CC4CCC(C3)N4)nc(OC[C@@]34CCCN3C[C@H](F)C4)nc2c1F` (racemic) [Example 362, 4-((1R,5S)-3,8-diazabicyclo[3.2.1]octan-3-yl)-7-(2-(tert-butyl)phenyl)-8-fluoro-2-((2-fluorotetrahydro-1H-pyrrolizin-7a(5H)-yl)methoxy)pyrido[4,3-d]pyrimidine (racemic, trans)], the pIC50 in assay [3] is 4.98; on KRas G12D [2], 6.98.
Regarding `Nc1ccc(Cl)c(F)c1-c1ncc2c(N3CC4CCC(C3)N4)nc(OC[C@@]34CCCN3C[C@H](F)C4)nc2c1F` (racemic) [Example 380, 2-(4-((1R,5S)-3,8-diazabicyclo[3.2.1]octan-3-yl)-8-fluoro-2-((2-fluorotetrahydro-1H-pyrrolizin-7a(5H)-yl)methoxy)pyrido[4,3-d]pyrimidin-7-yl)-4-chloro-3-fluoroaniline bis(2,2,2-trifluoroacetate) (racemic, trans)], the pIC50 in assay [3] was less than 4.78; at KRas G12D [2] it was 7.18.
On to `OCC(O)CCOc1nc(N2C[C@H]3CC[C@@H](C2)N3)c2cnc(-c3cccc4cccc(Cl)c34)c(F)c2n1` (stereo partly drawn) [Example 57, 4-((4-((1R,5S)-3,8-diazabicyclo[3.2.1]octan-3-yl)-7-(8-chloronaphthalen-1-yl)-8-fluoropyrido[4,3-d]pyrimidin-2-yl)oxy)butane-1,2-diol], for which the negative-log Kd (pKd) at KRas G12D [1] is less than 3.00. In addition, the pIC50 at KRas G12D [2] is 5.14.
Turning to `Oc1cc(-c2ncc3c(N4C[C@H]5CC[C@@H](C4)N5)nc(OCCc4ncccn4)nc3c2F)c2ccccc2c1` [Example 7, 4-(4-((1R,5S)-3,8-diazabicyclo[3.2.1]octan-3-yl)-8-fluoro-2-(2-(pyrimidin-2-yl)ethoxy)pyrido[4,3-d]pyrimidin-7-yl)naphthalen-2-ol], the pKd on KRas G12D [1] is 6.33. This compound showed a negative-log IC50 (pIC50) on KRas G12D [2] of 5.73.
With `COc1cc(-c2ncc3c(N4CC5CCC(C4)N5)nc(OC[C@@]45CCCN4C[C@H](F)C5)nc3c2F)c2ccccc2c1` (racemic) [Example 385, 4-((1R,5S)-3,8-diazabicyclo[3.2.1]octan-3-yl)-8-fluoro-2-((2-fluorotetrahydro-1H-pyrrolizin-7a(5H)-yl)methoxy)-7-(3-methoxynaphthalen-1-yl)pyrido[4,3-d]pyrimidine (racemic, trans)], the pIC50 was less than 4.78 in assay [3] and 5.51 on KRas G12D [2].
In the case of `C#Cc1c(F)ccc2cc(O)cc(-c3ncc4c(N5CC6CCC(C5)N6)nc(OC[C@]56CCCN5[C@@H](COC(=O)N(C)C)CC6)nc4c3F)c12` [Example 440, ((3R,7aR)-7a-(((4-((1R,5S)-3,8-diazabicyclo[3.2.1]octan-3-yl)-7-(8-ethynyl-7-fluoro-3-hydroxynaphthalen-1-yl)-8-fluoropyrido[4,3-d]pyrimidin-2-yl)oxy)methyl)hexahydro-1H-pyrrolizin-3-yl)methyl dimethyl carbamate], the values for the negative-log IC50 (pIC50) (in assay [3]; on KRas G12D [2]) were 8.08 and 9.10, respectively.

In general, pKd refers to the Kd on a negative log10 scale, so that one unit is a factor of ten. In general, pIC50 refers to the IC50 on a negative log10 scale, so that one unit is a factor of ten.
